Assay results as given in ChEMBL document CHEMBL1156391, “Screening of triterpenoids isolated from Phyllanthus flexuosus for DNA topoisomerase inhibitory activity” (J Nat Prod, 2001).
Activity calls are given as the source filed them. No cut-off for these calls is given here.

Tests used:
[1] = target: T1, DNA topoisomerase 1 (Homo sapiens) (UniProt P11387); assay: Inhibition of human topoisomerase 1 assessed as relaxation of supercoiled pBR322 DNA up to 200 uM by agarose gel electrophoresis
T1 sequence (whole entry): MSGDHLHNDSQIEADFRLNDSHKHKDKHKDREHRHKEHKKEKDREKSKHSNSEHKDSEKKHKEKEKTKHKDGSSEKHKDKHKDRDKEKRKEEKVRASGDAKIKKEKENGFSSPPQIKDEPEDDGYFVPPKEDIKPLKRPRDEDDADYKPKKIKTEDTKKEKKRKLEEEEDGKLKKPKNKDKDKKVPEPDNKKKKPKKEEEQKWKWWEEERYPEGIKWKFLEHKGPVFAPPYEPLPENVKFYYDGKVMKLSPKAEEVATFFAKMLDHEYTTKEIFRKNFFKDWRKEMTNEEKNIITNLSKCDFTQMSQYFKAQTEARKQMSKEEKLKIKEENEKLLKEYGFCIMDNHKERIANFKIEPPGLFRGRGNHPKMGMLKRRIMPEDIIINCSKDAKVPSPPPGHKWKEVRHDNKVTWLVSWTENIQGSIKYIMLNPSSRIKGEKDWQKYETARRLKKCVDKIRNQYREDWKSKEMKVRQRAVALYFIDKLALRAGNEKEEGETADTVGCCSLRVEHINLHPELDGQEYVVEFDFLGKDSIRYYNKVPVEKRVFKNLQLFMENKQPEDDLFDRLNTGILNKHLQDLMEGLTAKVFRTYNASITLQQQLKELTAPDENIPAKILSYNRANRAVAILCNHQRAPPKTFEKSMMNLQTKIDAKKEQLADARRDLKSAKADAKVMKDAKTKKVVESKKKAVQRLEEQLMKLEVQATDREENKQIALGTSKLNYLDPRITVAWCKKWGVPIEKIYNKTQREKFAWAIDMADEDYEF

[2] = target: T2, DNA topoisomerase 2-alpha (Homo sapiens, UniProt P11388); assay: Inhibition of human 1 unit topoisomerase 2alpha catalytic activity assessed as relaxation of 198 ng supercoiled pBR322 DNA by agarose gel electrophoresis
T2 sequence (P11388 whole entry): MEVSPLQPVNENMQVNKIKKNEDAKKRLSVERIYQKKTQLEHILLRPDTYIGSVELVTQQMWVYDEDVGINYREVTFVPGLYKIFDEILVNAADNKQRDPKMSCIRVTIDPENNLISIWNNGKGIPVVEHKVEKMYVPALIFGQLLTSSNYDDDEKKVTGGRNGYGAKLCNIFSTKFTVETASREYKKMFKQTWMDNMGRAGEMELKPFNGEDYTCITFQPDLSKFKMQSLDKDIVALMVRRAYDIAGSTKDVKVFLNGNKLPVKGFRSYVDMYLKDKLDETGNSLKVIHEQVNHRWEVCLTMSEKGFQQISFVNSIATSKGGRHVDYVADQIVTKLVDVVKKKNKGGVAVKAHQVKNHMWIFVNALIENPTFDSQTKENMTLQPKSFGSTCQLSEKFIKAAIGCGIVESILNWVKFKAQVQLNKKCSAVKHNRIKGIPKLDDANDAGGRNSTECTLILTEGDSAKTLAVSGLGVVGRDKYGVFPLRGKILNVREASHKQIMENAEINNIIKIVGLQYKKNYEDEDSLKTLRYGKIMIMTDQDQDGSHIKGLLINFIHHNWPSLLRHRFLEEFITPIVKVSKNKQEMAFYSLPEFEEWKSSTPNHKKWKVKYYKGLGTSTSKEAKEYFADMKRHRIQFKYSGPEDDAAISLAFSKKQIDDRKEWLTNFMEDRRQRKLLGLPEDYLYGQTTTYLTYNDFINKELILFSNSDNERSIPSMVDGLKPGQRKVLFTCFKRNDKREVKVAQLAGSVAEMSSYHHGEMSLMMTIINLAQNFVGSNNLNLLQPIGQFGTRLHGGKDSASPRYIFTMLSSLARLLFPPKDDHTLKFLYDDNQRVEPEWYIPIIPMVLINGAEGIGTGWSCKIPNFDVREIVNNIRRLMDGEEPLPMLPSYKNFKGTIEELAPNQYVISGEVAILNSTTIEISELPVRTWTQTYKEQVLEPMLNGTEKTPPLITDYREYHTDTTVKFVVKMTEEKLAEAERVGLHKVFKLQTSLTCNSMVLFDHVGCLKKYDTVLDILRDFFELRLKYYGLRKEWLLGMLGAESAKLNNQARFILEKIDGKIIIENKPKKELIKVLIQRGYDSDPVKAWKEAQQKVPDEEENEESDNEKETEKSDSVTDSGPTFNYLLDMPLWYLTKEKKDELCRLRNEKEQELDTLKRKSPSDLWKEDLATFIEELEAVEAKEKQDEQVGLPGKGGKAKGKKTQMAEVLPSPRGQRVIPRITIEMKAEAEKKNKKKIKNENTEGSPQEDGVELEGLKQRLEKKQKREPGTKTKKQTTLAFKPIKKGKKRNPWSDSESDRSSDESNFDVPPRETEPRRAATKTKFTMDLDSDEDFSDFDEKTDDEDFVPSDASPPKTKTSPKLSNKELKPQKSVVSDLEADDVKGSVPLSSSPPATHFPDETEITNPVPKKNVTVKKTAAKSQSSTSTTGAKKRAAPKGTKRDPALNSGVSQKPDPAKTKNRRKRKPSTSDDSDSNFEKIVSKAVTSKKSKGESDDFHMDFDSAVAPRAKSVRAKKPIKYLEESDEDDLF

[3] = target: T2, DNA topoisomerase 2-alpha; assay: Inhibition of 1 unit human topoisomerase 2alpha catalytic activity assessed as relaxation of 198 ng supercoiled pBR322 DNA at 100 uM by agarose gel electrophoresis
[4] = target: T2, DNA topoisomerase 2-alpha; assay: Inhibition of 1 unit human topoisomerase 2alpha catalytic activity assessed as relaxation of 198 ng supercoiled pBR322 DNA at 200 uM by agarose gel electrophoresis

| Activity [1] | Activity [2] | IC50 [2] [µM] | Activity [3] | inhibition [4] | SMILES |
| --- | --- | --- | --- | --- | --- |
| inactive | Dose-dependent effect | 38.7 | Active |  | CC1(C)CC[C@]2(C)C[C@H](O)[C@]3(C)C(=CC[C@@H]4[C@@]5(C)CC[C@H](O)[C@](C)(CO)[C@@H]5CC[C@]43C)[C@@H]2C1 |
| inactive |  |  |  | inactive | C=C(C)[C@@H]1CC[C@]2(C)CC[C@]3(C)[C@H](CC[C@@H]4[C@@]5(C)CC[C@H](O)[C@](C)(CO)[C@@H]5CC[C@]43C)[C@H]12 |
| inactive | Dose-dependent effect | 10.4 | Active |  | C=C(C)[C@@H]1CC[C@]2(C)CC[C@]3(C)[C@H](CC[C@@H]4[C@@]5(C)CC[C@H](O)C(C)(C)[C@@H]5CC[C@]43C)[C@@H]12 [LUPEOL] |

Continued, molecule first:

| SMILES | Activity [1] | Activity [2] | IC50 [2] [µM] | Activity [3] | inhibition [4] |
| --- | --- | --- | --- | --- | --- |
| C=C(C)[C@@H]1CC[C@]2(CO)CC[C@]3(C)[C@H](CC[C@@H]4[C@@]5(C)CC[C@H](O)C(C)(C)[C@@H]5CC[C@]43C)[C@@H]12 [BETULIN] | inactive | Dose-dependent effect | 38.6 | Active |  |
| CC1(C)CC[C@]2(C)C[C@H](O)[C@]3(C)C(=CC[C@@H]4[C@@]5(C)CC[C@H](O)C(C)(C)[C@@H]5CC[C@]43C)[C@@H]2C1 | inactive | Dose-dependent effect | 17.5 | Active |  |
| CC1(C)CC[C@]2(C)CC[C@]3(C)C(=CC[C@@H]4[C@@]5(C)CC[C@H](O)[C@](C)(CO)[C@@H]5CC[C@]43C)[C@@H]2C1 | inactive |  | > 200 |  | 33% |
